In US11066399B2, “Ferroportin inhibitors” (Vifor (International) AG, priority 2015, dated 2021):
Marks after values point to notes of the source that are not given here.

Assays:
ferroportin (Fpn) = molecular target: T1, ferroportin (Fpn) (Mus musculus, UniProt Q9JHI9); assay: Hepcidin Internalization Assay (J774); format: cell-based; conditions: average (AVE) of multiple measurements; TMR-hepcidin 25 nM, J774 cells
T1 construct: host or cells: J774 mouse macrophage cell line, Fe(III)-NTA induced
T1 sequence (Q9JHI9 1-570): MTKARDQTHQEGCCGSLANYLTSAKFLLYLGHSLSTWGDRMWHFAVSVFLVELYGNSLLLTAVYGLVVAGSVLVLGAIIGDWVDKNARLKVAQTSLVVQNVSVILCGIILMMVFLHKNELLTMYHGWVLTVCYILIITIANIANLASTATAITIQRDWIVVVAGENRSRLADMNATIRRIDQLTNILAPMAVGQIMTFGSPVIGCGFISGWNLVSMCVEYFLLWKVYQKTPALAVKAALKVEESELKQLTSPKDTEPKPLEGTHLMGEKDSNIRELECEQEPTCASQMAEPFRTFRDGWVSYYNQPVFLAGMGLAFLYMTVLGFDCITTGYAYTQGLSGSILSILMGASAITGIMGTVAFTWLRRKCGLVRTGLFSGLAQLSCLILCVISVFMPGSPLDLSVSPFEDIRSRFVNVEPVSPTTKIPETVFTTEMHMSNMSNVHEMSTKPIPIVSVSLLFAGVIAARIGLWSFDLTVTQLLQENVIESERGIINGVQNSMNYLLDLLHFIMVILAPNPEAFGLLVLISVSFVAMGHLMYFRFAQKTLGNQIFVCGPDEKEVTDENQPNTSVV
From the text: This cellular assay allows quantification of the binding of hepcidin to ferroportin (Fpn) through microscopic detection of internalization of a fluorescently labeled hepcidin into J774 cells. […] Binding of hepcidin to Fpn triggers internalization and degradation of both hepcidin and Fpn. However, the TMR (6-carboxytetramethylrhodamine) fluorophore attached to hepcidin remains associated with the cell after degradation of the hepcidin peptide backbone. Therefore, microscopic detection of cell-associated TMR fluorescence is a measure of hepcidin binding to Fpn and internalization of hepcidin and Fpn. If TMR-hepcidin is prevented from binding to Fpn, cellular TMR fluorescence remains low (Dürrenberger et al, 2013). The effect of small molecular weight Fpn inhibitor compounds in this assay was evaluated in vitro as described below.
After overnight incubation, cells were washed 3 times with pre-warmed DMEM w/o phenol red, 30 μl/well of DMEM w/o phenol red was added after the final wash and 10 μl/well of dilution series of test compounds were added in triplicates. […] Cells were incubated in a total volume of 50 μl at 37° C. with 5% CO2 for 2 hours, then Hoechst 33342 dye was added to a final concentration of 0.5 μg/ml to stain nuclei and further incubated for 10 min. at 37° C. with 5% CO2. Cells were washed 3 times with PBS and fixed in 100 μl of 4% paraformaldehyde in PBS for 15 min. at room temperature. After removal of the paraformaldehyde solution, cells were washed 3 times with PBS leaving 100 μl per well and the plates were sealed with foil plate seal. TMR (530-550 nm excitation/575-625 nm emission/400 ms exposure time) and Hoechst 33342 (360-370 nm excitation/420-460 nm emission/10 ms exposure time) fluorescence images were acquired using a ScanR plate imager (Olympus) with a 20× high NA objective. Four pictures were acquired per well and fluorescence channel covering ca. 1500 cells per well. The acquired image data was analysed with the ScanR image analysis software. Image analysis included detection of nuclei (Hoechst 33342 fluorescence), identification of cell-associated regions, application of a virtual channel and thresholding for rolling-ball-type background reduction, followed by application of the Sum(Mean) algorithm to measure the TMR fluorescence associated with cells as a quantitative measure for internalized TMR-hepcidin. IC50 values were calculated with the Sum(Mean) raw data using “log(inhibitor) vs. response” curve fitting of Prism 5 software (GraphPad Software Inc., version 5.02).

b2m−/− mice = assay: Correction of hyperferremia in beta2-microglobulin deficient mice; format: in vivo, mouse; conditions: for effect on elevated serum iron: b2m−/− mice, 50 mg/kg p.o. for 3 h
Experimental: Female and male homozygous b2m−/− mice were supplied from Jackson Laboratories (B6.129P2-B2mtm1Unc/J, Stock Number: 002087) at age of 6 to 7 weeks and fed standard diet (Harlan Provimi Kliba 3436) ad libitum. Age and gender matched WT C57BL/6 mice are supplied by Charles River. To study the acute effects of ferroportin (Fpn) inhibitors in iron overload b2m−/− mice were treated with compounds or the corresponding amount of vehicle at a volume of 10 ml/kg body weight. Fpn inhibitor compounds were formulated in 0.5% methylcellulose/water or 20% cremophor EL/water and dosed p.o. in mice at 50 mg/kg body weight. WT controls received only vehicle. Three hours later, mice were pre-terminally anesthetized in isoflurane chambers and blood was collected by retro-orbital bleeding. Mice were sacrificed by cervical dislocation and spleens, livers and duodena were harvested and used for biomarker analysis. All experiments have been performed in compliance with license approved by the responsible veterinarian authorities. Serum was isolated by centrifugation of blood into gel-containing microtainers (BD Biosciences) and serum iron was determined by the MULTIGENT Iron assay (Abbott Diagnostics, Cat. 6K95). Four to nine mice per group were used and one-way ANOVA with Bonferroni's multiple comparison test was applied to analyze the statistical differences between the experimental groups.
Blood was collected 1 (#) or 3 (##) hours after oral administration of the indicated doses of Fpn inhibitors to beta2-microglobulin deficient mice and serum iron concentrations were measured. Relative reduction (%) of serum iron levels are shown, which were calculated by subtracting the average of serum iron values of animals dosed with the Fpn inhibitor from that of vehicle-treated animals. The difference in average serum iron values between vehicle and compound treated groups was then divided by the average of serum iron of the vehicle control group and listed as percentage.

Hbb th3/+ mice = assay: Improvement of anemia, ineffective erythropoiesis and iron overload in a mouse model of β-thalassemia intermedia; format: in vivo; conditions: % change to vehicle; for Decrease in serum iron: dosed for 3 h
Experimental: The efficacy of Fpn inhibitors was investigated using a mouse model of transfusion-independent β-thalassemia. Mice with heterozygous deletion of β1 and β2 globin genes (called Hbb th3/+ mice) develop transfusion-independent anemia, ineffective erythropoiesis, splenomegaly and secondary iron overload in spleen, liver and kidneys. […] Hbb th3/+ mice were dosed twice daily with either compound at 20 or 60 mg/kg or with methylcellulose (10 ml/kg, Sigma, Cat. 274429) as a vehicle. Between both doses mice had access to drinking water supplemented with 1 mM ^58Fe(II)-sulfate (Vifor Pharma, Batch No. ROR 3096) and 10 mM ascorbic acid (Sigma, Cat. 795437) for 6 h. […] Water without ^58Fe(II)-Sulfate and ascorbic acid was provided during the remaining 18 h. Dosing of Fpn inhibitors or vehicle followed by exposure to iron-containing water was repeated for 20 to 46 days in individual experiments.
Additional hematologic parameters were measured in terminal blood using automated blood cell analyzer.
The inefficient erythropoiesis of Hbb th3/+ mice causes excessive proliferation of erythroid precursors in spleen, leading to splenomegaly.
Erythroferrone is produced by erythrocyte precursors proliferating massively in spleens of Hbb th3/+ mice as a consequence of extramedullar erythropoiesis.
Increased iron demand due to inefficient erythropoiesis and chronically low hepcidin levels in patients with thalassemia causes organ iron loading and associated morbidities, such as hepatocellular carcinoma and heart failure (Rivella S. Haematologica, 2015). Hbb th3/+ mice absorb excessive amounts of iron as a consequence of inadequately low hepcidin levels relative to the high iron content in liver, spleen and kidney and increased ferroportin expression in duodenum (Gardenghi S., Blood, 2007).
Additionally, reactive oxygen species (ROS) were detected in bone marrow cells using a fluorescent indicator, CM-H2DCFDA (Thermo Fisher Scientific, Cat. C6827).
Table 10. Efficacy of Ferroportin inhibitors in a mouse model of thalassemia intermedia (Hbb th3/+ mice). […] Data are expressed as difference to the vehicle control group for hemoglobin and as % change to the vehicle control group for all other parameter shown

[1] = male b2m−/− mice, Dose 60 mg/kg oral, blood collected 3 (##) hours after dosing
[2] = 20 mg/kg twice daily for 20-46 days
[3] = 60 mg/kg twice daily for 20-46 days

O=C(NCc1ncccc1F)c1cnc(C2CN(CCc3nc4c(F)cccc4[nH]3)C2)o1 [Example 3]
IC50 (ferroportin (Fpn)): 170 nM

O=C(NCc1ncccc1F)c1cnc(CCNCc2nc3ccccc3[nH]2)o1 [Example 4]
IC50 (ferroportin (Fpn)): 155 nM

O=C(NCc1ncccc1F)c1cnc(C2CN(CCc3nc4cc(F)ccc4[nH]3)C2)o1 [Example 5]
IC50 (ferroportin (Fpn)): 63 nM

Cc1nc(CCNCCc2nc3ccccc3[nH]2)sc1C(=O)NCc1ncccc1F [Example 7]
IC50 (ferroportin (Fpn)): 400 nM

O=C(NCc1ncccc1F)c1cnc(CCNCCc2nc3ccccc3[nH]2)s1 [Example 8]
IC50 (ferroportin (Fpn)): 240 nM

O=C(NCc1ncccc1F)c1csc(CCNCCc2nc3ccccc3[nH]2)n1 [Example 94]
Serum Iron Reduction (%) (b2m−/− mice; female b2m−/− mice, Dose 60 mg/kg oral, blood collected 3 (##) hours after dosing): 47% | Serum Iron Reduction (%) (b2m−/− mice; [1]): 67%

O=C(NCc1ncccc1F)c1coc(CCNCCc2nc3ccccc3[nH]2)n1 [Example 127]
Serum Iron Reduction (%) (b2m−/− mice; female b2m−/− mice, Dose 20 mg/kg oral, sampling time not marked): 47*** % | Serum Iron Reduction (%) (b2m−/− mice; female b2m−/− mice, Dose 60 mg/kg oral, sampling time not marked): 74*** % | Serum Iron Reduction (%) (b2m−/− mice; male b2m−/− mice, Dose 60 mg/kg oral, sampling time not marked): 83** % | Decrease in 58Fe spleen iron content (Hbb th3/+ mice; [2]): 43% | Decrease in RDW (Hbb th3/+ mice; [2]): 19% | Decrease in serum erythropoietin (Hbb th3/+ mice; [2]): 32% | Increase in hematocrit (Hbb th3/+ mice; [2]): 3% | Prevention of liver 58Fe loading (Hbb th3/+ mice; [2]): 39% | Decrease in serum iron (Hbb th3/+ mice; 20 mg/kg): 68% | Decrease in 58Fe spleen iron content (Hbb th3/+ mice; [3]): 68% | Decrease in RDW (Hbb th3/+ mice; [3]): 25% | Decrease in serum erythropoietin (Hbb th3/+ mice; [3]): 33% | Increase in hematocrit (Hbb th3/+ mice; [3]): 20% | Prevention of liver 58Fe loading (Hbb th3/+ mice; [3]): 59% | Decrease in serum iron (Hbb th3/+ mice; 60 mg/kg): 81%

O=C(NCc1ncccc1F)c1coc(C2CN(CCc3nc4ccccc4[nH]3)C2)n1 [Example 208]
Serum Iron Reduction (%) (b2m−/− mice; female b2m−/− mice, Dose 20 mg/kg oral, blood collected 3 (##) hours after dosing): 9% | Serum Iron Reduction (%) (b2m−/− mice; male b2m−/− mice, Dose 20 mg/kg oral, blood collected 3 (##) hours after dosing): 44% | Serum Iron Reduction (%) (b2m−/− mice; [1]): 67** %

O=C(NCc1ncccc1F)c1csc(CCN2Cc3nc4ccccc4n3CC2=O)n1 [Example 275]
IC50 (ferroportin (Fpn)): 26000 nM

O=C(NCc1ncccc1F)c1csc(CCN2CCn3c(nc4ccccc43)C2)n1 [Example 276]
IC50 (ferroportin (Fpn)): 27200 nM

O=C(NCc1ccccn1)c1noc(CCNCCc2nc3ccccc3[nH]2)n1 [Example 278]
IC50 (ferroportin (Fpn)): 476 nM

O=C(NCc1ncccc1F)c1noc(CCNCCc2nc3ccccc3[nH]2)n1 [Example 279]
IC50 (ferroportin (Fpn)): 2010 nM

O=C(NCc1ncccc1F)c1cnc(C2CN(Cc3nc4ccccc4[nH]3)C2)o1 [Example 280]
IC50 (ferroportin (Fpn)): 50000 nM

O=C(NCc1ncccc1F)c1csc(CCNCc2nc3ccccc3[nH]2)n1 [Example Compound No. 40, 2-{2-[(1H-1,3-benzodiazol-2-ylmethyl)amino]ethyl}-N-[(3-fluoropyridin-2-yl)methyl]-1,3-thiazole-4-carboxamide]
effect on elevated serum iron (b2m−/− mice): corrected the elevated serum iron to the levels observed in WT controls

O=C(NCc1ncccc1F)c1csc(CCNCCc2nc3ccccc3[nH]2)n1 [Example Compound No. 94, 2-(2-{[2-(1H-1,3-benzodiazol-2-yl)ethyl]amino}ethyl)-N-[(3-fluoropyridin-2-yl)methyl]-1,3-thiazole-4-carboxamide]
effect on elevated serum iron (b2m−/− mice): corrected the elevated serum iron to the levels observed in WT controls
